According to patent US20250034216A1, “STEREOSELECTIVE COVALENT LIGANDS FOR ONCOGENIC AND IMMUNOLOGICAL PROTEINS” (The Scripps Research Institute, priority 2021, published 2025):

Experiments:
Test in all cases: IA-DTB cysteine engagement
Assay type in all cases: binding
[1] = biological target: T1, NSUN2_C271 (Homo sapiens, UniProt Q08J23); settings: 22Rv1 cells, relative to DMSO; for % engagement NSUN2_C271: 20 μM probe, 1 h; for % engagement NSUN2_271: 5 μM probe, 1 h (FIG. 5B)
T1 construct: endogenous in cells; host or cells: 22Rv1
T1 sequence (Q08J23 whole entry): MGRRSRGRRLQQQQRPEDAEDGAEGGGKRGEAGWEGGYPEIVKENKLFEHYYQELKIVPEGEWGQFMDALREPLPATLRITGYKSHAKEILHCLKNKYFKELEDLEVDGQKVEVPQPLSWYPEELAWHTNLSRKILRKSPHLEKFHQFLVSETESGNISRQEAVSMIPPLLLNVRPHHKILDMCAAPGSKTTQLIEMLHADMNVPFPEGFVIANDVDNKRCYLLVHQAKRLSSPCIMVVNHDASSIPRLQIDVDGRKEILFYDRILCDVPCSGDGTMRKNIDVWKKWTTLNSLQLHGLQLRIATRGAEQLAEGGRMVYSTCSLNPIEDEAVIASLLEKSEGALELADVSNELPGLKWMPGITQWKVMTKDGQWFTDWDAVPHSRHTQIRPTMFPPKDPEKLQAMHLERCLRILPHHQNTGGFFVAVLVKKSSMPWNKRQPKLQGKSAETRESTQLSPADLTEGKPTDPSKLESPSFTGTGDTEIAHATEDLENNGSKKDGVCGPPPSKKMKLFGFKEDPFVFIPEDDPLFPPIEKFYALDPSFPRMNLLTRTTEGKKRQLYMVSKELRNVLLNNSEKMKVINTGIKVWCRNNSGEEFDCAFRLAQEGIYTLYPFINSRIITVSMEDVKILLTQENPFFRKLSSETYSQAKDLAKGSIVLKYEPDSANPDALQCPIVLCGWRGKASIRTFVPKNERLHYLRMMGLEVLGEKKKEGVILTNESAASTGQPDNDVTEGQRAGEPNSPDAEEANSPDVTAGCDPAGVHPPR
Procedure, shortened: (§1)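 Read-out is TMT-based cysteine engagement, expressed as each reporter ion intensity divided by the average of the DMSO channels. Before that, probe-treated cell lysates were capped with IA-DTB, digested, enriched on streptavidin and TMT-tagged. PSMs with DMSO summed intensity <10,000 or DMSO CV >0.5 were excluded.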

[2] = biological target: T2, TMEM50A_C13 (Homo sapiens, UniProt O95807); settings: 22Rv1 cells, 20 μM probe, 1 h, relative to DMSO
T2 construct: endogenous in cells; host or cells: 22Rv1
T2 sequence (O95807 whole entry): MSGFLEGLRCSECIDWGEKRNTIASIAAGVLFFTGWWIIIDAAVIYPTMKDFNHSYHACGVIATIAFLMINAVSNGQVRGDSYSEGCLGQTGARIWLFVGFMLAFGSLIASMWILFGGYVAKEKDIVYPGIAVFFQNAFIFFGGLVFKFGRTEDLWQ
Procedure, shortened: as §1

[3] = biological target: T3, GPAT3_C306 (Homo sapiens, UniProt Q53EU6); settings: 22Rv1 cells, 20 μM probe, 1 h, relative to DMSO
T3 construct: endogenous in cells; host or cells: 22Rv1
T3 sequence (Q53EU6 1-434): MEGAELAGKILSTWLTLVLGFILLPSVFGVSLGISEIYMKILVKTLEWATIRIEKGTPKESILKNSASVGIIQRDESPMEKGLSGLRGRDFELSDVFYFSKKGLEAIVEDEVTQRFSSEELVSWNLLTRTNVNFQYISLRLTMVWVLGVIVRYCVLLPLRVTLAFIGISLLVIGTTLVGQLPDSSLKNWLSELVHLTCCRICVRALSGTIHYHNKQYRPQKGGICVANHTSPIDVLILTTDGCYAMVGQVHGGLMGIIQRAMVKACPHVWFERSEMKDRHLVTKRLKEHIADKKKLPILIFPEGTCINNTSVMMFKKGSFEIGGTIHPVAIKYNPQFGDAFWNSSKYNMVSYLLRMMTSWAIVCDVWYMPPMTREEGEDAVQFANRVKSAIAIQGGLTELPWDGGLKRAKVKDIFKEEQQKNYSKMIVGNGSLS
Procedure, shortened: as §1

[4] = biological target: T4, NCAPD2_C439 (Homo sapiens, UniProt Q15021); settings: 1 h, 22Rv1 cells, 20 μM probe, relative to DMSO; for % engagement NCAPD2_C439: 60 min, 20 µM
T4 construct: endogenous in cells; host or cells: 22Rv1
T4 sequence (Q15021 whole entry): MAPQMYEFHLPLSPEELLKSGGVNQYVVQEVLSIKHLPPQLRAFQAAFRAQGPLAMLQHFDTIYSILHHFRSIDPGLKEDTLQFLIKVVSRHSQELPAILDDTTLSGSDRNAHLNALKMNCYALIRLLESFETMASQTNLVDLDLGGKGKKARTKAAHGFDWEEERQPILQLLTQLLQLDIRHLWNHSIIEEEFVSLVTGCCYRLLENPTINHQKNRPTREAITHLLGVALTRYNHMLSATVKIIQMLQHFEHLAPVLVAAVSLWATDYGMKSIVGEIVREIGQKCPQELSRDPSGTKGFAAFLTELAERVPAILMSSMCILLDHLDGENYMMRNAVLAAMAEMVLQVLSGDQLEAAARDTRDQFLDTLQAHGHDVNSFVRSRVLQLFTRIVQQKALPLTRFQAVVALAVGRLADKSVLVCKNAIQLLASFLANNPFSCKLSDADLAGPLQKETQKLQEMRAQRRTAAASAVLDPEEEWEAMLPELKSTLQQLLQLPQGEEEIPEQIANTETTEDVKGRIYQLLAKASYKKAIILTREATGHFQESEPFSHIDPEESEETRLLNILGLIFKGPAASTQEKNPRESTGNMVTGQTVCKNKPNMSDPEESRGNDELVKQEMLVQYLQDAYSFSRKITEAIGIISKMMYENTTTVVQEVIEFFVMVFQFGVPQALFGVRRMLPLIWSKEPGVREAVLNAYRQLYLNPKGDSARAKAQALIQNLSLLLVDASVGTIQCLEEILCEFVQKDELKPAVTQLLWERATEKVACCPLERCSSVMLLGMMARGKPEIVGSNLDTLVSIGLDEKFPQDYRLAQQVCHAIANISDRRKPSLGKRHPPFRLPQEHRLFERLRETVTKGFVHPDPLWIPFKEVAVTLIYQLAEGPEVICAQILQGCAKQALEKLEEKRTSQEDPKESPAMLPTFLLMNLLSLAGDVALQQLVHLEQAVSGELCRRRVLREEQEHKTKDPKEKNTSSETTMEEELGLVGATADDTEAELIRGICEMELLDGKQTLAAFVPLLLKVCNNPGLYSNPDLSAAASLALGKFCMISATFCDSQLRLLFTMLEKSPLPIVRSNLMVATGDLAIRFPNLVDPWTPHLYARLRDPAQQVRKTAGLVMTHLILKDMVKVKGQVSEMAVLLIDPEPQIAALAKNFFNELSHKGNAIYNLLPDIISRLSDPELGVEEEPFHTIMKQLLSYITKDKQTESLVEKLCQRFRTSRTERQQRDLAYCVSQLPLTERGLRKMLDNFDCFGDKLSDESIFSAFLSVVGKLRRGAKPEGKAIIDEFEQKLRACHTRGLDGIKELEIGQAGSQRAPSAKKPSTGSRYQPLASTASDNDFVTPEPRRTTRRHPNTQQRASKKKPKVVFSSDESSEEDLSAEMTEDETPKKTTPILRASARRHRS
Procedure, shortened: as §1

[5] = biological target: T5, DCAF1_C1113 (Homo sapiens, UniProt Q9Y4B6); settings: 22Rv1 cells, 20 μM probe, 1 h, relative to DMSO
T5 construct: endogenous in cells; host or cells: 22Rv1
T5 sequence (Q9Y4B6 whole entry): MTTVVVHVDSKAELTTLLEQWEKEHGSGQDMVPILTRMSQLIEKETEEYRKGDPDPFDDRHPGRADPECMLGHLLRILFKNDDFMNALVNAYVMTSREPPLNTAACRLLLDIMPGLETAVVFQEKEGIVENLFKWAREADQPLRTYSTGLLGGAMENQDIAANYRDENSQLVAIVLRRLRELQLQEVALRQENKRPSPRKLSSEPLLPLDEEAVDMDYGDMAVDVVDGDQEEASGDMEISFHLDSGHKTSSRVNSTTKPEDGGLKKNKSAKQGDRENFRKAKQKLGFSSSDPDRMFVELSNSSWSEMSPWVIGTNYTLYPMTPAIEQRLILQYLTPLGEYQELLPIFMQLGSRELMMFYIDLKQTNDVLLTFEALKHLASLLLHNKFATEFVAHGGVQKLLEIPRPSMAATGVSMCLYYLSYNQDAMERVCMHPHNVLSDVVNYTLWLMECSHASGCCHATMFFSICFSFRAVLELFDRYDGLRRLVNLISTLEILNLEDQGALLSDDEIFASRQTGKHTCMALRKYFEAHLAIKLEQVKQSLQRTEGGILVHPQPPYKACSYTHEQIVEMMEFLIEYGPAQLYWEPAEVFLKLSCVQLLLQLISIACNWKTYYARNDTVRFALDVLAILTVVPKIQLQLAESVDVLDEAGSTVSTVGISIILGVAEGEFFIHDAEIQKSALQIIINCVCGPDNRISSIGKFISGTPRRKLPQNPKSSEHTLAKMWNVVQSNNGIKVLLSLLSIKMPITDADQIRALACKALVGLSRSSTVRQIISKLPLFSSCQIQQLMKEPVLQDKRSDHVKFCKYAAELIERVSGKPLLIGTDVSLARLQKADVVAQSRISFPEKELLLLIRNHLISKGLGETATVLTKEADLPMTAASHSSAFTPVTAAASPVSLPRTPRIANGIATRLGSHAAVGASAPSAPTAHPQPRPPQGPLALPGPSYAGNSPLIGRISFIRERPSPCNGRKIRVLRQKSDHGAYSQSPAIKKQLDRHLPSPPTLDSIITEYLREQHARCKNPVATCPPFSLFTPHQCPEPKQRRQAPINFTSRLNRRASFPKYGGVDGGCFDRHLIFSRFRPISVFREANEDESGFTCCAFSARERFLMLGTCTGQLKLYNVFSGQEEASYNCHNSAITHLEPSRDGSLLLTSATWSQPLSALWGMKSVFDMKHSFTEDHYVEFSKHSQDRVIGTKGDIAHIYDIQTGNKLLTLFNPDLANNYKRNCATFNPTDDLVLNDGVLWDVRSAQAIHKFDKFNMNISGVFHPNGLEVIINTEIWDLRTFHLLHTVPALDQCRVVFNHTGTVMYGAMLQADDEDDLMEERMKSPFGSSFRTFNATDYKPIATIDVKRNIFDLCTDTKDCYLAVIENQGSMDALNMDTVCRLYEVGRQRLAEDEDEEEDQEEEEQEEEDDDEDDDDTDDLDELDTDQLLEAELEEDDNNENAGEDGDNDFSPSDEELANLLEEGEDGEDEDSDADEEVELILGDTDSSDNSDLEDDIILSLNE
Procedure, shortened: as §1

[6] = biological target: T6, ESRP1_C551 (Homo sapiens, UniProt Q6NXG1); settings: 22Rv1 cells, 20 μM probe, 1 h, relative to DMSO
T6 construct: endogenous in cells; host or cells: 22Rv1
T6 sequence (Q6NXG1 1-681): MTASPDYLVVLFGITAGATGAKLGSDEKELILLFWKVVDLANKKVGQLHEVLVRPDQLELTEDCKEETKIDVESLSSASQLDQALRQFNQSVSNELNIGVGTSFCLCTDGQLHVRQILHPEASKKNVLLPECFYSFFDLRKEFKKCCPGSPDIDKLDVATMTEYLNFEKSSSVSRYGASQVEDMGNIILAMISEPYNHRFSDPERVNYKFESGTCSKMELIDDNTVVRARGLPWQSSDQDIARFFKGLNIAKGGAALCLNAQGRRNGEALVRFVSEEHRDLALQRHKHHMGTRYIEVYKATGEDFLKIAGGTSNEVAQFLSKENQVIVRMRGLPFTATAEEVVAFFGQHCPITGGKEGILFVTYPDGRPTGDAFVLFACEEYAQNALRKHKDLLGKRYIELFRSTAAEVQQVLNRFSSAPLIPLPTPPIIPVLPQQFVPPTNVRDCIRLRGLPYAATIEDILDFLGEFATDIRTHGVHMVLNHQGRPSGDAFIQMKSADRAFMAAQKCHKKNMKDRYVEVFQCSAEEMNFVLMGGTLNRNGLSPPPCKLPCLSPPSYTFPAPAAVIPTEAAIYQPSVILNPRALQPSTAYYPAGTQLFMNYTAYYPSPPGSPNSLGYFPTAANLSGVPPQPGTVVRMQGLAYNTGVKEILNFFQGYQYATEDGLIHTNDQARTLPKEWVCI
Procedure, shortened: as §1

[7] = biological target: T7, LAPTM4A_C20 (Homo sapiens, UniProt Q15012); settings: 22Rv1 cells, 20 μM probe, 1 h, relative to DMSO
T7 construct: endogenous in cells; host or cells: 22Rv1
Procedure, shortened: as §1

Compound | % engagement NSUN2_C271 [1] [%] | % engagement TMEM50A_C13 [2] [%] | % engagement GPAT3_C306 [3] [%] | inhibition at 20 µM [4] [%] | % engagement DCAF1_C1113 [5] [%] | % engagement ESRP1_C551 [6] [%] | % engagement LAPTM4A_C20 [7] [%] | % engagement NSUN2_271 [1] [%] | % engagement NCAPD2_C439 [4] [%]
C=CC(=O)N1C[C@@H](c2ccc(Br)cc2)[C@H]1C(=O)Nc1cccc2cccnc12 [MY-1A, (2S,3R)-1-acryloyl-3-(4-bromophenyl)-N-(quinolin-8-yl)azetidine-2-carboxamide] | 42.25 | 63.5 | 75.75 | 29.5 | −18 | 51 | 69 | – | –
C=CC(=O)N1C[C@H](c2ccc(Br)cc2)[C@@H]1C(=O)Nc1cccc2cccnc12 [MY-1B, (2R,3S)-1-acryloyl-3-(4-bromophenyl)-N-(quinolin-8-yl)azetidine-2-carboxamide] | 88.75 | 58 | 81.5 | 20 | 68.5 | 73.5 | 55 | 94.50 | –
C=CC(=O)N1C[C@H](c2ccc(Br)cc2)[C@H]1C(=O)Nc1cccc2cccnc12 [MY-3A, (2S,3S)-1-acryloyl-3-(4-bromophenyl)-N-(quinolin-8-yl)azetidine-2-carboxamide] | −8.25 | 60.5 | 57 | – | −1.5 | 6.5 | 49.5 | – | 21.5
C=CC(=O)N1C[C@H](c2ccc(Br)cc2)[C@H]1C(=O)Nc1cccc2cccnc12 [MY-3B, (2S,3S)-1-acryloyl-3-(4-bromophenyl)-N-(quinolin-8-yl)azetidine-2-carboxamide] | −11 | 68.5 | 100 | – | 26.5 | 69 | 70.5 | – | 80
CC#CC(=O)N1C[C@H](c2ccc(Br)cc2)[C@@H]1C(=O)Nc1cccc2cccnc12 [MY-45B, (2R,3S)-3-(4-bromophenyl)-1-(but-2-ynoyl)-N-(quinolin-8-yl)azetidine-2-carboxamide] | – | – | – | – | – | – | – | −13.13 | –
